Earlier results, collected in US20250367228A1, “FORMULATIONS FOR BOOSTING NAD+ USING MULTIPLE BIOLOGICAL PATHWAYS CONCURRENTLY TO OVERCOME ENZYMATIC DEGRADATION AND IMPROVE DOWNSTREAM BENEFITS” (PROHEALTH, priority 2023, published 2025).

Experiments:
[1] = system: NAD+ blood concentrations; details: 1000 mg/day of NR, elderly subjects
[2] = biological target: T1, CD38 (Homo sapiens, UniProt P28907)
T1 sequence (P28907 1-300): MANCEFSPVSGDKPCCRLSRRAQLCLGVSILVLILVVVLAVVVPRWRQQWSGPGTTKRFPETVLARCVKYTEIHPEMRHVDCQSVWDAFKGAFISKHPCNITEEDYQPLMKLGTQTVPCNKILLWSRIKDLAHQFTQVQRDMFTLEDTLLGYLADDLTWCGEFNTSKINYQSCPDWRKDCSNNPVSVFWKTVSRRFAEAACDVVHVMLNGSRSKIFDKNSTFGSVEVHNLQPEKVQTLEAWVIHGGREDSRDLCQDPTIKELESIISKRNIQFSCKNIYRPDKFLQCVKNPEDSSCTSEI

inhibition of CD38 [2] | SMILES | increase of NAD+ blood concentrations [1]
– | NC(=O)c1ccc[n+]([C@@H]2O[C@H](CO)[C@@H](O)[C@H]2O)c1 [NR, Nicotinamide riboside] | two-fold
inhibited | O=c1cc(-c2ccc(O)cc2)oc2cc(O)cc(O)c12 [apigenin] | –
inhibited | O=c1c(O)c(-c2ccc(O)c(O)c2)oc2cc(O)cc(O)c12 [quercetin] | –
